Assay results from US20240424010A1, “NICOTINAMIDE RIBOSIDE TRIOLEATES CHLORIDE, COMPOSITIONS CONTAINING THIS COMPOUND, AND METHODS OF MAKING AND USING THIS COMPOUND” (SOCIETE DES PRODUITS NESTLE S.A., priority 2021, published 2024).

Experiments:
porcine pancreatin = test system: porcine pancreatin
Protocol: In vitro digestion of NRTOCl in pure form and dissolved in MCT oil was investigated in the following procedures.
The buffer for simulated intestinal phase was prepared according to the following protocol.^29 Specifically, 60 mg of NRTOCl was dissolved in 0.3 mL ethanol and added to 10 g of a buffer solution containing 400 mg bile bovine. 0.75 mL of a CaCl2 solution (0.3 M) was added to this mixture, and the pH was adjusted around 7 by using HCl (1 M). Then, 400 mg of fresh porcine pancreatin was dispersed in 4 mL of buffer solution and added to the mixture. The sample was placed in an incubator (250 rpm) at 37°° C. for 30 minutes. Subsequently, the sample was taken out of the incubator to adjust the pH to around 7 and returned to the incubator for another 30 minutes. The incubation steps and adjusting pH were repeated every 30 minutes until 2 hours were over. For quenching the enzyme, the sample was placed in an ice bath, and then 1.5 mL of the sample was centrifuged at 14,000 rpm for 10 minutes. Finally, the aqueous phase was separated and filtered by a 0.22 μm filter for determination of released NR and nicotinamide.
60 mg of NRTOCl was dissolved in 150 mg of MCT oil to prepare 29% w/w NRTO in MCT oil. Aqueous phase was 10 g of the buffer solution containing 400 mg bile bovine. The oil phase was added to the aqueous phase and homogenized at […] for 150 seconds at room temperature. 0.75 mL of a CaCl2 solution (0.3 M) was added to this mixture, and the pH was adjusted around 7 by using HCl (1 M). Then, 400 mg of fresh porcine pancreatin was dispersed in 5 mL of buffer solution and added to the mixture. The sample was placed in an incubator (250 rpm) at 37° C. for 30 minutes. Then, the sample was taken out of the incubator to adjust the pH to around 7 (by NaOH 1 M) and returned to the incubator for another 30 minutes. The incubating and adjusting pH steps were repeated every 30 minutes until 2 hours were over. For quenching the enzyme, the sample was placed in an ice bath and then 1.5 mL of the sample was centrifuged at 14000 rpm for 10 min. Finally, the aqueous phase was separated and filtered by a 0.22 μm filter for determination of released NR and nicotinamide.
After the NRTOCl stability study in different conditions, the digestibility of this compound to produce NR in simulated intestinal fluid was studied. This enzymatic digestion used porcine pancreatin, bile bovine, and a buffer solution at pH around 7.^29 The lipase enzyme in porcine pancreatin can hydrolyze the fatty ester groups to produce NR, NRDO (nicotinamide riboside dioleates), NRMO (nicotinamide riboside monoleate) and oleic acid as the main products of digestion (FIG. 16). Moreover, nicotinamide (NAM) and ribose-trioleates (RTO) can be formed as the products of hydrolysis of NRTO not digestion. By considering this hypothesis, the NRTO digestion was studied in simulated intestinal phase.
At first, the digestion study was followed by dissolving pure NRTOCl (60 mg) in 0.3 mL of ethanol, and then this solution was added to 10 mL of buffer solution containing 400 mg of bile bovine to disperse NRTO in bile bovine solution. After that, 0.75 mL of CaCl2 solution (0.3M) was added to this mixture, and the pH was adjusted to 7.0 by adding HCl (1 M). […] The released NR and nicotinamide from the sample was measured by LC-MS and HPLC analyses.

[1] = Hydrolysis stability of NRTOCl emulsions and NRCl in water at room temperature for 42 days; type: physicochemical
Protocol: After each specific time of stability for NRTOCl and NRCl emulsions, 1.5 mL of each emulsion was centrifuged (14,000 rpm) for 20 minutes at room temperature. […] However, during this time of stability study, 52.0% NR was intact in water at room temperature. […] During this time, these emulsions were stable without visible phase separation. A little increase in the average size of the NRTO droplets occurred in these emulsions, so that in Cas emulsion, the average size increased from 1020 nm to 1281 nm, and in Cas-Lec emulsion, this parameter increased from 1012 nm to 1106 nm.

[2] = Particle size, zeta-potential (dynamic light scattering) and TEM of NRTOCl dispersion and emulsions; type: physicochemical
Protocol: The particle size distribution, mean particle diameter (Zeta average size) and zeta-potential of NRTOCl in DI water were measured by using a commercial dynamic light-scattering device (Nano-ZS, Malvern Instruments, Worcestershire, UK). Tecnai F20 TEM/STEM transmission electron microscope (200 kV) was used for characterizing the structure and morphology of prepared NRTOCl nanoparticles. Although NRTOCl is a quaternary ammonium salt, it was not dissolved in water due to the existence of three groups of oleate fatty ester in its structure. Therefore, for the stability study of NRTOCl, this compound was dispersed in DI water using 1% ethanol as a cosolvent. For this purpose, 15 mg of NRTOCl was dissolved in 0.15 ml of ethanol (1%) and then 14.85 ml of DI water was added to the mixture and gently shaken. […] Although the average size of NRTOCl in this sample was 192 nm, the images of TEM disclosed smaller particles with around 50 nm and oval and spherical shapes with aspect ratio close to unity (FIGS. 10A-10C). In the nanoparticles, the NRTOCl structures are stacked on top of each other layer-by-layer. The highly positive charge of NRTO makes the nanoparticles stable in the aqueous phase. […] The total oil phase in these emulsions were 3.2 wt. %, and the concentration of NRTOCl in total volume of each emulsion (15 mL) was 4.4 mM. In the emulsions that used Na-caseinate as an emulsifier, NaN3 (0.01 wt. %) was added to prevent the growth of bacteria. […] An NRTO in canola oil-in-water emulsion was also prepared, using 2 wt. % Tween 80 as an emulsifier in DI water (Tween emulsion). […] As expected by using Tween 80 as a neutral emulsifier, the positive charge of NRTO droplets was almost intact in the emulsion.

[3] = NRTOCl dispersed in DI water with 1% ethanol, 1,000 ppm

NRTO completely digested (porcine pancreatin): at least 27.5% | digestibility to release NR (porcine pancreatin): digestible | nicotinamide detected (N-glycosidic bond hydrolysis) during digestion (porcine pancreatin): 3.9% | nicotinamide measured (N-glycosidic bond hydrolysis) during digestion (porcine pancreatin): 2.4% | ribose-trioleates formed during digestion (porcine pancreatin): 2.4% | released NR from NRTO (hydrolysis of ester groups) ([1]; all NRTO stability conditions): no released NR | hydrolysis of NRTO after 42 days ([1]; canola oil-in-water emulsion (sodium caseinate), room temperature, 42 days): 5% | particle size (average size) [2, 3]: 192 nm | zeta potential [2, 3]: +65 mV | particle size by TEM ([2]; NRTOCl dispersed in DI water, TEM images): around 50 nm
Compound: CCCCCCCC/C=C\CCCCCCCC(=O)OC[C@H]1O[C@@H]([n+]2cccc(C(N)=O)c2)[C@H](OC(=O)CCCCCCC/C=C\CCCCCCCC)[C@@H]1OC(=O)CCCCCCC/C=C\CCCCCCCC.[Cl-] [NRTOCl, nicotinamide riboside trioleates chloride]
